Assay results: patent US20150065567A1, “1-PHENYLALKANECARBOXYLIC ACID DERIVATIVES FOR THE TREATMENT OF ALZHEIMER'S DISEASE AND MULTIPLE SCLEROSIS” (Chiesi Farmaceutici S.p.A., priority 2013, published 2015)
Read-outs that look alike come from different tables or passages of the source.

What was measured:
[1] = tested on: Aβ42 secretion in human neuroglioma cells over-expressing the Swedish mutated APP (H4swe); settings: read-out: IC50 for lowering Aβ42 secretion; cited from earlier work
NICD-responsive genes = settings: at 100 μM; cited from earlier work
[2] = stated after the mice and rats data; cited from earlier work
[3] = guinea-pigs, cited from earlier work
COX-2 = molecular target: T1, COX-2 (Homo sapiens, UniProt P35354); settings: concentrations up to 300 μM; cited from earlier work
T1 sequence (P35354 18-604): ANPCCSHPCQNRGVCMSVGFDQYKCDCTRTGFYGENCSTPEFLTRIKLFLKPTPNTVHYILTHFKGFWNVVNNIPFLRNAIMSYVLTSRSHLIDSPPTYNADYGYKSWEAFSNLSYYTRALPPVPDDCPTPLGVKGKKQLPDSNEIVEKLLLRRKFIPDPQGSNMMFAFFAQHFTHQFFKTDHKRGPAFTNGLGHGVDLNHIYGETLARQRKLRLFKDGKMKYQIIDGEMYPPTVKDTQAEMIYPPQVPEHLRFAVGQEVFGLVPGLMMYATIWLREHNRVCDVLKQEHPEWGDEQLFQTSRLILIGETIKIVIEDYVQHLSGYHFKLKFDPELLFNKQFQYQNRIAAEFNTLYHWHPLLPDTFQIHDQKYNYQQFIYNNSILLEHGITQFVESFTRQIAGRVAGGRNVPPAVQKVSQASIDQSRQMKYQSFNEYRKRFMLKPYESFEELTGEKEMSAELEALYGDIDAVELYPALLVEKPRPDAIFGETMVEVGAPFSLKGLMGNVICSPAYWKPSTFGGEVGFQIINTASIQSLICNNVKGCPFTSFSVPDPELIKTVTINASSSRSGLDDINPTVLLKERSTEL

TNFα = settings: healthy subjects, short-term administration; cited from earlier work
[4] = mice, cited from earlier work
[5] = dogs, cited from earlier work
[6] = tested on: transgenic mouse models of AD; settings: cited from earlier work
[7] = rats; cited from earlier work
[8] = tested on: astrocyte-microglia co-culture (mixed glial cell culture) exposed to Aβ1-42; assay: M1/M2 marker mRNA expression (RT-qPCR) in mixed glial culture exposed to Aβ1-42; format: cell-based, C57BL/6 mice
Procedure: C57BL/6 mice are purchased from Charles River. Mixed glial cell cultures were prepared from the brains of 1-3 day newborn mice. Briefly, after carefully removing meninges and large blood vessels, the brains were pooled and then dissociated by manual dispersion with a fire-polished Pasteur pipette. The cells were allowed to attach and grow at 37° C. in DMEM supplemented with 10% fetal bovine serum (FBS) (Euroclone), 4 mM L-glutamine, 200 U/ml penicillin/streptomycin in a water saturated atmosphere containing 5% CO2 for two week.
Soluble Aβ 1-42 were dissolved in sterile water to a final concentration of 2.5 mM, divided into aliquots and frozen. For experiments, mixed glial cells were incubated with soluble (not aggregated) Aβ 1-42, added at a concentration of 10 μM, in presence of CHF5074 (solved in 0.2% DMSO) or vehicle. Incubation was carried out for different times (from 1 to 8 days) in a Neurobasal/B27 medium. At the end of these periods, neuronal cell death by necrosis was evaluated by measuring the amount of lactate dehydrogenase (LDH) released into the culture medium using the CytoTox 96-non-radioactive cytotoxicity assay (Promega).
Total RNA was purified from cultured cells using the RNeasy Mini Kit for total RNA extractions (Qiagen). RNA was reverse transcribed using the Quantitect® Reverse Transcription Kit (Qiagen) with optimized mix of oligo-dT and random primers as primer and 1 μg of total RNA from mixed primary culture or co-culture. The reverse transcription reaction were performed in a total volume of 20 μL containing 5×RT-Buffer (that included dNTPs and Mg^2+), 50 U RT (Reverse trascriptase), 20 U RNase Inhibitor in RNAse-DNase free water for 10 min at 25° C., 2 h at 37° C. and 10 min at 85° C. Individual 25 μL SYBR Green real-time PCR reactions consisted of 2 μL of cDNA, 12.5 μL of 2× iQ™ SYBR Green Supermix (Bio-Rad), and 1.5 μL of each 10 μM optimized forward and reverse primers in 7.5 μL RNase-free water.
The PCR were performed on a Bio-Rad iCycler Detection System using a 3-stage program: 3 min at 50° C., 10 min at 95° C. and 40 cycles of 30 sec at 94° C. and 45 secat 60° C. For standardization of quantification, β-actin were amplified simultaneously. Sets of primer were designed to amplify by Real-time RT-PCR (q-RT-PCR) and RT-PCR genes expressed by classically activated (M1) microglia: • TNFα (Tumor Necrosis Factor α); • IL-1β (Interleukin1β); • iNOS (inducible Nitric Oxide Sinthase); and by alternatively activated (M2) microglia: • ARG1 (Arginase 1); • MRC1 (C-type mannose receptor 1); • TREM2 (Triggering Receptor Expressed on Myeloid cells-2). Primer3plus was used as primer designing tool and then checked the oligos (synthetized by Invitrogen) to verify melting temperatures and quality of the sequences.
Data were analyzed with Student's t-test for independent data. P<0.05 was considered as significant.
The effect of CHF5074 on the inflammatory response induced by Aβ was examined. Mixed astrocyte-microglia co-cultures were exposed to Aβ with or without CHF5074 at 3 μM concentration and examined for cytokine expression after 2 or 8 days. For classical activation of microglia, the expression of iNOS, beside TNFα and IL-1β was analyzed (see FIG. 2).
The alternative microglial activation markers (M2) in mixed glial cultures exposed to Aβ with and without CHF5074 for 2 days or 8 days were also investigated (see FIG. 3).

[9] = tested on: Notch intracellular cleavage in human embryonic kidney 293swe cells; settings: at 5 μM, HEK 293swe cells; cited from earlier work
COX-1 = COX-1 (Homo sapiens, UniProt P23219); settings: concentrations up to 100 μM; cited from earlier work
COX-1, sequence (P23219 24-599): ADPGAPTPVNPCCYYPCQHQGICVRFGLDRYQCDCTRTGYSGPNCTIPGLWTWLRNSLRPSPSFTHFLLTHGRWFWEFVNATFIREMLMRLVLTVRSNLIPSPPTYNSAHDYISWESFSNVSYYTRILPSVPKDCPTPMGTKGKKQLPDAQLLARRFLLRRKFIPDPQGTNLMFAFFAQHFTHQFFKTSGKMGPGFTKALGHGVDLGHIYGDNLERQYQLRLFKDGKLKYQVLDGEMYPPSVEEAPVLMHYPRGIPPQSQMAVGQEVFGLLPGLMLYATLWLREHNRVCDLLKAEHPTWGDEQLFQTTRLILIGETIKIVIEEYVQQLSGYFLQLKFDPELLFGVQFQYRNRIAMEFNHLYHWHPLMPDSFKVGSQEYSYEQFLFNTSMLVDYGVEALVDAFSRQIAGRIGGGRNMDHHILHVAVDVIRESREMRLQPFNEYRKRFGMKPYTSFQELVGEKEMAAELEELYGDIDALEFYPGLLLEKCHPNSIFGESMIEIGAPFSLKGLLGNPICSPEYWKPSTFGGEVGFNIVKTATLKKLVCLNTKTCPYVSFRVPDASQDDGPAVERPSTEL

AD patients = settings: cited from earlier work
dendritic spine density = settings: mice; cited from earlier work

For `O=C(O)C1(c2ccc(-c3ccc(Cl)c(Cl)c3)c(F)c2)CC1` [CHF 5074, 1-(3′,4′-dichloro-2-fluorobiphenyl-4-yl)cyclopropanecarboxylic acid], the IC50 [1] is listed as 3.6 µM, the “expression profile of several NICD-responsive genes” value (NICD-responsive genes) is listed as “does not alter” and the “brain levels as % of the corresponding plasma concentrations” value [2] is listed as 3-14%. The “plasma elimination half-life t1/2” value ([3]; after oral administration) was “≈ 30 hours”, the brain penetration [3] was 3-9% and the “inhibitory activity on COX-2” value (COX-2) was “does not display inhibitory activity”. The “TNFα level in cerebrospinal fluid” value (TNFα) was “reduce TNFα level”, the oral absorption ([4]; oral) was 74% and the “plasma elimination t1/2” value [4] was 12 h. For the same compound, the oral absorption ([5]; oral route) was 80-100%, the “plasma elimination t1/2” value [5] was “≈ 24 hours” and the tolerability ([6]; 60 mg/kg/day, prolonged treatment for 4-9 months) was “well tolerated”. For the same compound, the “neuropathological and behavioral activity” value ([6]; oral doses of 60 mg/kg/day) was “active”, the oral absorption [7] was 50% and the ARG1 expression ([8]; 3 μM with 10 μM Aβ1-42, 2 days) was “no change”. For the same compound, the “IL-1β mRNA expression” value ([8]; 3 μM with 10 μM Aβ1-42, 2 days) was “significantly decreased”, the “TNFα mRNA expression” value ([8]; 3 μM with 10 μM Aβ1-42, 2 days) was “significantly decreased” and the “iNOS mRNA expression” value ([8]; 3 μM with 10 μM Aβ1-42, 2 days) was “significantly decreased”. The “increase of TREM2 mRNA over the basal value” ([8]; 3 μM with 10 μM Aβ1-42, 2 days) was about 60%, the “MRC1 mRNA level” value ([8]; 3 μM with 10 μM Aβ1-42, 2 days, Aβ alone reduced MRC1 to about 50% of basal) was “near a three-fold increase” and the “M2 mRNAs (MRC1, TREM2 and ARG1) expression” value ([8]; 3 μM with 10 μM Aβ1-42, 8 days) was “None of the tested M2 mRNAs (MRC1, TREM2 and ARG1) appeared modified”. For the same compound, the “TNFα, IL1β and iNOS (M1) expression levels” value ([8]; 3 μM with 10 μM Aβ1-42, 8 days) was “does not modify”, the “effects on Notch intracellular cleavage” value [9] was “no effects were observed” and the “inhibitory activity on COX-1” value (COX-1) was “does not display inhibitory activity”.
For `CC(C)[C@H](O)C(=O)N[C@@H](C)C(=O)N[C@@H]1C(=O)N(C)CCc2ccccc21` [semagacestat], the “cognition and ability to complete activities of daily living versus placebo” value (AD patients; interim analysis of two Phase 3 trials) is given as “worsened over time to a statistically significantly higher rate”, the “rate of skin cancer compared to placebo” value (AD patients; two 21-month Phase 3 trials, more than 2,600 AD patients) is given as “increased rate of skin cancer” and the dendritic spine density (dendritic spine density) is given as “decrease dendritic spine density”.
